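Grown in 96-well plates, cells were treated for 48 hours with each compound at five concentrations. Insufficient inhibition: endpoint recorded as highest concentration tested. GI50 = concentration required for 50% inhibition of growth.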 Calls of active or inactive are those of the source. No stated cut-off is given here; in the data, active = GI50 up to about 1.1 µM and inactive = higher.
Legend:
Assay in all cases: NCI-60 cell line screen, 48 h
A498 = test system: A498
CAKI-1 = test system: CAKI-1
EKVX = test system: EKVX
HL-60 = test system: HL-60
HOP-62 = test system: HOP-62
HOP-92 = test system: HOP-92
KM12 = test system: KM12
M14 = test system: M14
OVCAR-5 = test system: OVCAR-5
OVCAR-8 = test system: OVCAR-8
RPMI-8226 = test system: RPMI-8226
RXF 393 = test system: RXF 393
SF-268 = test system: SF-268
SK-OV-3 = test system: SK-OV-3
SN12C = test system: SN12C
SNB-75 = test system: SNB-75
UACC-257 = test system: UACC-257
NCI/ADR-RES = test system: NCI/ADR-RES
PC-3 = test system: PC-3

Structure (SMILES) | GI50 (A498) | GI50 (CAKI-1) | GI50 (EKVX) | GI50 (HL-60) | GI50 (HOP-62) | GI50 (HOP-92) | GI50 (KM12) | GI50 (M14) | GI50 (OVCAR-5) | GI50 (OVCAR-8) | GI50 (RPMI-8226) | GI50 (RXF 393) | GI50 (SF-268) | GI50 (SK-OV-3) | GI50 (SN12C) | GI50 (SNB-75) | GI50 (UACC-257) | GI50 (NCI/ADR-RES) | GI50 (PC-3)
CCOc1ccc(-c2oc(/C=N/NS(=O)(=O)c3ccc(C)cc3)c([N+](=O)[O-])c2-c2ccc(OCC)cc2)cc1 | 14.9 µM (inactive) | 10.3 µM (inactive) | 26.1 µM (inactive) | 4.03 µM (inactive) | 21.3 µM (inactive) | 8.85 µM (inactive) | 8.81 µM (inactive) | 12.4 µM (inactive) | 11.5 µM (inactive) | 15.6 µM (inactive) | 2.58 µM (inactive) | 12.3 µM (inactive) | 17.9 µM (inactive) | 15.4 µM (inactive) | 12.8 µM (inactive) | 4.19 µM (inactive) | 16 µM (inactive) | – | –
COC(=O)C1(C(=O)OC)N=C(C)OC1c1ccccc1O (configuration not stated) | > 100 µM (inactive) | > 100 µM (inactive) | > 100 µM (inactive) | > 100 µM (inactive) | > 100 µM (inactive) | > 100 µM (inactive) | > 100 µM (inactive) | > 100 µM (inactive) | > 100 µM (inactive) | > 100 µM (inactive) | > 100 µM (inactive) | > 100 µM (inactive) | – | > 100 µM (inactive) | > 100 µM (inactive) | > 100 µM (inactive) | > 100 µM (inactive) | > 100 µM (inactive) | > 100 µM (inactive)
C[C@H](CCC1SC1(C)C)C1CCC2(C)C3=C(CC[C@]12C)[C@@]1(C)CC[C@H](O)C(C)(C)C1CC3 (some centres not stated) | > 100 µM (inactive) | > 100 µM (inactive) | > 100 µM (inactive) | > 100 µM (inactive) | > 100 µM (inactive) | > 100 µM (inactive) | > 100 µM (inactive) | > 100 µM (inactive) | > 100 µM (inactive) | > 100 µM (inactive) | > 100 µM (inactive) | > 100 µM (inactive) | > 100 µM (inactive) | > 100 µM (inactive) | > 100 µM (inactive) | 75.2 µM (inactive) | > 100 µM (inactive) | – | –
O=C1C=Cc2noc3cccc1c23 | 13.6 µM (inactive) | 12.5 µM (inactive) | 3.9 µM (inactive) | 1.05 µM (active) | – | 2.28 µM (inactive) | 4.85 µM (inactive) | 9.08 µM (inactive) | 14.5 µM (inactive) | 2.88 µM (inactive) | 2.01 µM (inactive) | 2.52 µM (inactive) | 3.15 µM (inactive) | 18.1 µM (inactive) | 11.7 µM (inactive) | 11.6 µM (inactive) | 12.6 µM (inactive) | – | –
COc1c(Br)cc(Br)c(OC)c1-c1[nH]c(Br)c(Br)c1Br | 12.1 µM (inactive) | 2.52 µM (inactive) | 6.93 µM (inactive) | 6.76 µM (inactive) | 8.22 µM (inactive) | 1.82 µM (inactive) | 4.48 µM (inactive) | 7.16 µM (inactive) | 14.3 µM (inactive) | 8.75 µM (inactive) | 3.39 µM (inactive) | 1.36 µM (inactive) | 3.78 µM (inactive) | 13.6 µM (inactive) | 5.9 µM (inactive) | 4.45 µM (inactive) | 4.81 µM (inactive) | – | –
Cc1c(C(=O)/C=C/c2cccc3ccccc23)[n+]([O-])c2ccccc2[n+]1[O-] | 16.9 µM (inactive) | 7.85 µM (inactive) | 14.1 µM (inactive) | 7.41 µM (inactive) | 15.8 µM (inactive) | 10.1 µM (inactive) | 14 µM (inactive) | 13.7 µM (inactive) | 15.2 µM (inactive) | 11 µM (inactive) | 12 µM (inactive) | 10.1 µM (inactive) | 14.7 µM (inactive) | 17.3 µM (inactive) | 14.1 µM (inactive) | 13 µM (inactive) | 13.5 µM (inactive) | – | –
CCOC(=O)C(=O)C=P(c1ccccc1)(c1ccccc1)c1ccccc1 | > 100 µM (inactive) | > 100 µM (inactive) | > 100 µM (inactive) | > 100 µM (inactive) | > 100 µM (inactive) | > 100 µM (inactive) | > 100 µM (inactive) | > 100 µM (inactive) | > 100 µM (inactive) | > 100 µM (inactive) | > 100 µM (inactive) | > 100 µM (inactive) | > 100 µM (inactive) | > 100 µM (inactive) | > 100 µM (inactive) | > 100 µM (inactive) | > 100 µM (inactive) | – | –
O=C(/C=C/c1ccccc1O)c1ccc([N+](=O)[O-])cc1 | 20.8 µM (inactive) | 18.5 µM (inactive) | 10.6 µM (inactive) | 16.4 µM (inactive) | 16.4 µM (inactive) | 26.6 µM (inactive) | 18.5 µM (inactive) | 20.9 µM (inactive) | 22.1 µM (inactive) | 15.5 µM (inactive) | – | 11 µM (inactive) | 18 µM (inactive) | 26.8 µM (inactive) | 15.5 µM (inactive) | 7.8 µM (inactive) | 53.3 µM (inactive) | – | –
Nc1ncc(/C=N/O)c(NCC2(CO)CC(CCc3ccccc3)C2)n1 (configuration not stated) | 11 µM (inactive) | 18.4 µM (inactive) | – | 2.2 µM (inactive) | 11.3 µM (inactive) | 12.4 µM (inactive) | 14.3 µM (inactive) | – | 16.9 µM (inactive) | 11.1 µM (inactive) | 5.73 µM (inactive) | 12.1 µM (inactive) | 23.9 µM (inactive) | – | 17 µM (inactive) | 14.5 µM (inactive) | 10.9 µM (inactive) | 5.82 µM (inactive) | 13.9 µM (inactive)
C#CCN(Cc1ccc2nc(-c3ccccc3)c(Cl)nc2c1)c1cc(OC)c(OC)c(OC)c1 | > 100 µM (inactive) | > 100 µM (inactive) | > 100 µM (inactive) | 57.9 µM (inactive) | > 100 µM (inactive) | > 100 µM (inactive) | > 100 µM (inactive) | > 100 µM (inactive) | > 100 µM (inactive) | > 100 µM (inactive) | 16.1 µM (inactive) | 37.1 µM (inactive) | 40.4 µM (inactive) | > 100 µM (inactive) | > 100 µM (inactive) | > 100 µM (inactive) | 39.2 µM (inactive) | – | –
N#Cc1cccnc1Cl | > 100 µM (inactive) | > 100 µM (inactive) | > 100 µM (inactive) | > 100 µM (inactive) | > 31.6 µM (inactive) | > 100 µM (inactive) | > 100 µM (inactive) | > 100 µM (inactive) | > 100 µM (inactive) | > 100 µM (inactive) | > 100 µM (inactive) | > 100 µM (inactive) | > 100 µM (inactive) | > 100 µM (inactive) | > 100 µM (inactive) | > 76.6 µM (inactive) | > 100 µM (inactive) | – | –
COC1C(OC(=O)/C=C/C=C/C=C/C=C\C(=O)O)CCC2(CO2)C1C1(C)OC1CC=C(C)C (configuration not stated) | > 100 µM (inactive) | > 100 µM (inactive) | > 100 µM (inactive) | – | > 100 µM (inactive) | > 100 µM (inactive) | > 100 µM (inactive) | > 100 µM (inactive) | > 100 µM (inactive) | > 100 µM (inactive) | > 100 µM (inactive) | > 100 µM (inactive) | > 100 µM (inactive) | > 89.7 µM (inactive) | > 100 µM (inactive) | > 100 µM (inactive) | > 100 µM (inactive) | > 100 µM (inactive) | > 100 µM (inactive)
O=C(CCc1ccccc1)On1nnc2ccccc2c1=O | 38.3 µM (inactive) | 30.8 µM (inactive) | > 100 µM (inactive) | > 100 µM (inactive) | > 100 µM (inactive) | > 100 µM (inactive) | > 100 µM (inactive) | > 100 µM (inactive) | > 100 µM (inactive) | > 100 µM (inactive) | – | > 100 µM (inactive) | > 100 µM (inactive) | > 100 µM (inactive) | > 100 µM (inactive) | > 100 µM (inactive) | > 100 µM (inactive) | – | –
C1CN2N3CCCC23C1 (configuration not stated) | > 100 µM (inactive) | > 100 µM (inactive) | > 100 µM (inactive) | > 100 µM (inactive) | > 100 µM (inactive) | – | > 100 µM (inactive) | > 100 µM (inactive) | > 100 µM (inactive) | > 100 µM (inactive) | > 100 µM (inactive) | > 100 µM (inactive) | > 100 µM (inactive) | > 100 µM (inactive) | > 100 µM (inactive) | > 100 µM (inactive) | > 100 µM (inactive) | – | –
O=[PH](O)c1ccccn1 | > 100 µM (inactive) | > 100 µM (inactive) | > 100 µM (inactive) | > 100 µM (inactive) | > 100 µM (inactive) | > 100 µM (inactive) | > 100 µM (inactive) | > 100 µM (inactive) | > 100 µM (inactive) | > 100 µM (inactive) | > 100 µM (inactive) | > 100 µM (inactive) | > 100 µM (inactive) | > 100 µM (inactive) | > 100 µM (inactive) | > 100 µM (inactive) | > 100 µM (inactive) | – | –
O=C(CC1=Nc2nnc(-c3nnc4n3C(=O)C(CC(=O)C3CC3)=N4)n2C1=O)C1CC1 | > 100 µM (inactive) | > 100 µM (inactive) | – | > 100 µM (inactive) | > 100 µM (inactive) | > 100 µM (inactive) | > 100 µM (inactive) | > 100 µM (inactive) | > 100 µM (inactive) | – | > 100 µM (inactive) | > 100 µM (inactive) | > 100 µM (inactive) | > 100 µM (inactive) | > 100 µM (inactive) | > 100 µM (inactive) | > 100 µM (inactive) | – | –
COc1ccc(OC)c(N2CC(N)C2=O)c1 (configuration not stated) | > 100 µM (inactive) | – | > 100 µM (inactive) | > 100 µM (inactive) | > 100 µM (inactive) | > 100 µM (inactive) | > 100 µM (inactive) | > 100 µM (inactive) | – | > 100 µM (inactive) | > 100 µM (inactive) | > 100 µM (inactive) | > 100 µM (inactive) | > 100 µM (inactive) | > 100 µM (inactive) | 86.7 µM (inactive) | > 100 µM (inactive) | – | –
